Test results as given in ChEMBL document CHEMBL5653615 (J Biol Chem, 2013).

Assays:
[1] = target: Serine/threonine-protein kinase PAK 5 (Homo sapiens) (UniProt Q9P286); test: Inhibition of human PAK5 at 500 nM by HotSpot assay relative to control
[2] = target: Protein-tyrosine kinase 2-beta (Homo sapiens) (UniProt Q14289); test: Inhibition of human PYK2 at 500 nM by HotSpot assay relative to control
[3] = target: T1, Aurora kinase A (Homo sapiens) (UniProt O14965); test: Inhibition of human Aurora A at 500 nM by HotSpot assay relative to control
T1 sequence (whole entry): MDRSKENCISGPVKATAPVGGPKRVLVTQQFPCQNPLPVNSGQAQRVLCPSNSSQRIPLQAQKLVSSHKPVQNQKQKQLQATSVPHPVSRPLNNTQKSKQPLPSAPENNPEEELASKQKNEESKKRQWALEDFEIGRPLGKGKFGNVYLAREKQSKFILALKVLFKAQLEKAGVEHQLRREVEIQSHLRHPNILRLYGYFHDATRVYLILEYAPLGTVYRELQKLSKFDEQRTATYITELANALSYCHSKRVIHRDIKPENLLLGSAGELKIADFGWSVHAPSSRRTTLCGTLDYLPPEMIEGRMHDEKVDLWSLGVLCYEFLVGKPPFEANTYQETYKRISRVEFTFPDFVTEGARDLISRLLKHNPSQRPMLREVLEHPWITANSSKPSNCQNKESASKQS

[4] = target: Cyclin-dependent kinase 4/cyclin D1 (Homo sapiens) (UniProt P11802+P24385); test: Inhibition of human CDK4/cyclin D1 at 500 nM by HotSpot assay relative to control; type: protein-complex assay
[5] = target: Mitogen-activated protein kinase kinase kinase 7 (Homo sapiens) (UniProt O43318); test: Inhibition of human TAK1 at 500 nM by HotSpot assay relative to control
[6] = target: Myosin light chain kinase 2, skeletal/cardiac muscle (Homo sapiens) (UniProt Q9H1R3); test: Inhibition of human MYLK2 at 500 nM by HotSpot assay relative to control
[7] = target: Serine/threonine-protein kinase MRCK beta (Homo sapiens) (UniProt Q9Y5S2); test: Inhibition of human CDC42BPB at 500 nM by HotSpot assay relative to control
[8] = target: Dual specificity tyrosine-phosphorylation-regulated kinase 1B (Homo sapiens) (UniProt Q9Y463); test: Inhibition of human DYRK1B at 500 nM by HotSpot assay relative to control
[9] = target: Rho-associated protein kinase 1 (Homo sapiens) (UniProt Q13464); test: Inhibition of human ROCK1 at 500 nM by HotSpot assay relative to control
[10] = target: T2, Serine/threonine-protein kinase Nek2 (Homo sapiens) (UniProt P51955); test: Inhibition of human NEK2 at 500 nM by HotSpot assay relative to control
T2 sequence (whole entry): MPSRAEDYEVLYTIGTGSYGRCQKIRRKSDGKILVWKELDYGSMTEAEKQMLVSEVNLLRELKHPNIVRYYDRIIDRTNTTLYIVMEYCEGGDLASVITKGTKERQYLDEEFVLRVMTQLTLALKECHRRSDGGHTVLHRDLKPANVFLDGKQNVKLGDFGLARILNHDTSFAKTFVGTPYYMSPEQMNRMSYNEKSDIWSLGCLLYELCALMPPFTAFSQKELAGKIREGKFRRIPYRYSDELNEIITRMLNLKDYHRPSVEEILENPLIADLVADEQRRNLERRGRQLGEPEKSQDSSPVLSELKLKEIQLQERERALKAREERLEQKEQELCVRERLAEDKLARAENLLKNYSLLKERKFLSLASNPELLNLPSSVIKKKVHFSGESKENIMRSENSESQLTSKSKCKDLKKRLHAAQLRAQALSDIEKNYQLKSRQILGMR

[11] = target: Cyclin-dependent kinase 5/CDK5 activator 1 (Homo sapiens) (UniProt Q00535+Q15078); test: Inhibition of human CDK5/p35 at 500 nM by HotSpot assay relative to control; type: protein-complex assay
[12] = target: Serine/threonine-protein kinase N2 (Homo sapiens) (UniProt Q16513); test: Inhibition of human PRK2 at 500 nM by HotSpot assay relative to control
[13] = target: Mitogen-activated protein kinase 14 (Homo sapiens) (UniProt Q16539); test: Inhibition of human MAPK14 at 500 nM by HotSpot assay relative to control
[14] = target: Tyrosine-protein kinase Srms (Homo sapiens) (UniProt Q9H3Y6); test: Inhibition of human SRMS at 500 nM by HotSpot assay relative to control
[15] = target: Tyrosine-protein kinase Lyn (Homo sapiens) (UniProt P07948); test: Inhibition of human LYN B at 500 nM by HotSpot assay relative to control
[16] = target: T3, Ephrin type-A receptor 8 (Homo sapiens) (UniProt P29322); test: Inhibition of human EPHA8 at 500 nM by HotSpot assay relative to control
T3 sequence (whole entry): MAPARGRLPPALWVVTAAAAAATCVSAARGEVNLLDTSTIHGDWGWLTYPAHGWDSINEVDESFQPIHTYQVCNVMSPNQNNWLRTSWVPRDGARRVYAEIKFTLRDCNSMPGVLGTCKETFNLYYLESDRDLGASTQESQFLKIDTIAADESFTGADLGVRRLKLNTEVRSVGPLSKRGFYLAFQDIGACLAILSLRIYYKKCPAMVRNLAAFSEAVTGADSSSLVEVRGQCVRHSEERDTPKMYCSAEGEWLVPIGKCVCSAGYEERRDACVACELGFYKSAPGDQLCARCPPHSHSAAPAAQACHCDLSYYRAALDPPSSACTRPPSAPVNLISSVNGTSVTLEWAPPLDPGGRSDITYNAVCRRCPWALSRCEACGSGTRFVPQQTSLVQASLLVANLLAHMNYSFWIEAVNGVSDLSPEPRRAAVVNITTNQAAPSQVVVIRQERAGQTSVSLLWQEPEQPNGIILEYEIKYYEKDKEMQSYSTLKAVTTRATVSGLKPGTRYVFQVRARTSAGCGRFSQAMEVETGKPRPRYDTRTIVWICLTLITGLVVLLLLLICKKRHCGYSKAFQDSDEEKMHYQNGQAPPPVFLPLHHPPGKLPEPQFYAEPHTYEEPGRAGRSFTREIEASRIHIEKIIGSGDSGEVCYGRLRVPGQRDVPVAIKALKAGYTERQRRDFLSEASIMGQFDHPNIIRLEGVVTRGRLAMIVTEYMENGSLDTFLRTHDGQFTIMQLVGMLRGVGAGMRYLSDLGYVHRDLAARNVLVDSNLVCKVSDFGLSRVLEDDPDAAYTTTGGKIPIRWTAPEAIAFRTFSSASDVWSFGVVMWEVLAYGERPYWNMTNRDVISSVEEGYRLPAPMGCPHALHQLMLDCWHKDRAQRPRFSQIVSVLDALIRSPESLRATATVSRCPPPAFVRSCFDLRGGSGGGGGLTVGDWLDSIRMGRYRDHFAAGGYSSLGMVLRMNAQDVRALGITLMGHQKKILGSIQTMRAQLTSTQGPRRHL

Sequence of Mitogen-activated protein kinase kinase kinase 7 (Homo sapiens) (O43318 whole entry, looked up): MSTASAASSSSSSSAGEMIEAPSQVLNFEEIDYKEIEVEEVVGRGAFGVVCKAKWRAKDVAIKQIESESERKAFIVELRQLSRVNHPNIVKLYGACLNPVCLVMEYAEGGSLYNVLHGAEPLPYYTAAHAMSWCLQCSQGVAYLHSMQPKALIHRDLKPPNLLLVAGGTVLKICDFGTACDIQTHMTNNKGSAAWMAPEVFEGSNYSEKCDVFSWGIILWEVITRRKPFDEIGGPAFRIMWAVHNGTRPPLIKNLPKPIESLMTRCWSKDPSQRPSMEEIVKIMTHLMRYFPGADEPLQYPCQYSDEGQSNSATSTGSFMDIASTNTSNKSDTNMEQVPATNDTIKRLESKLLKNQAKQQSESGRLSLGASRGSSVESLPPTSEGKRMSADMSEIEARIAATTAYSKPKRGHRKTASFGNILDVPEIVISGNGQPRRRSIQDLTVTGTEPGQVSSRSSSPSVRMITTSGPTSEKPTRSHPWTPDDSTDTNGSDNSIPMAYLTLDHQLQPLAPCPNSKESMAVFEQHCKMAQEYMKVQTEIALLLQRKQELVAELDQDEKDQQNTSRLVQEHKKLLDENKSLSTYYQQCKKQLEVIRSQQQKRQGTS
Sequence of Serine/threonine-protein kinase PAK 5 (Homo sapiens) (Q9P286 whole entry, looked up): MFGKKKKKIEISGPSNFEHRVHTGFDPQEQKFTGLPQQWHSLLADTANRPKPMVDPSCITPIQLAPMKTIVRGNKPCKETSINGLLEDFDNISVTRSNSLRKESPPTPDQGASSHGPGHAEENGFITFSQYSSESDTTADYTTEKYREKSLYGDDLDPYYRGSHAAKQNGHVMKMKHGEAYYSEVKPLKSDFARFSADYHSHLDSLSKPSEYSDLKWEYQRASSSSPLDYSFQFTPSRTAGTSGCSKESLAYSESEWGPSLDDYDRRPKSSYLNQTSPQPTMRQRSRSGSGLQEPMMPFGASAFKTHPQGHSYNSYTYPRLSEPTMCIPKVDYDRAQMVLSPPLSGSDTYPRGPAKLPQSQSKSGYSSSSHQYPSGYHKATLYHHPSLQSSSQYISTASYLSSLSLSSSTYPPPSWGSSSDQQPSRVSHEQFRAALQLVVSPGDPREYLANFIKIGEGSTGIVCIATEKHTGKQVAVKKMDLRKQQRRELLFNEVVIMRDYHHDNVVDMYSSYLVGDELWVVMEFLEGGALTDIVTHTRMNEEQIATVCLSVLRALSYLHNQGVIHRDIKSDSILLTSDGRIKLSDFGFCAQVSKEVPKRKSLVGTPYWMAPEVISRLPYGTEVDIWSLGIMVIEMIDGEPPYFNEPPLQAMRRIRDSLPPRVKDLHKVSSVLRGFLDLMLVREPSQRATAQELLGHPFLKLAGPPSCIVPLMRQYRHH
Sequence of Serine/threonine-protein kinase MRCK beta (Homo sapiens) (Q9Y5S2 whole entry): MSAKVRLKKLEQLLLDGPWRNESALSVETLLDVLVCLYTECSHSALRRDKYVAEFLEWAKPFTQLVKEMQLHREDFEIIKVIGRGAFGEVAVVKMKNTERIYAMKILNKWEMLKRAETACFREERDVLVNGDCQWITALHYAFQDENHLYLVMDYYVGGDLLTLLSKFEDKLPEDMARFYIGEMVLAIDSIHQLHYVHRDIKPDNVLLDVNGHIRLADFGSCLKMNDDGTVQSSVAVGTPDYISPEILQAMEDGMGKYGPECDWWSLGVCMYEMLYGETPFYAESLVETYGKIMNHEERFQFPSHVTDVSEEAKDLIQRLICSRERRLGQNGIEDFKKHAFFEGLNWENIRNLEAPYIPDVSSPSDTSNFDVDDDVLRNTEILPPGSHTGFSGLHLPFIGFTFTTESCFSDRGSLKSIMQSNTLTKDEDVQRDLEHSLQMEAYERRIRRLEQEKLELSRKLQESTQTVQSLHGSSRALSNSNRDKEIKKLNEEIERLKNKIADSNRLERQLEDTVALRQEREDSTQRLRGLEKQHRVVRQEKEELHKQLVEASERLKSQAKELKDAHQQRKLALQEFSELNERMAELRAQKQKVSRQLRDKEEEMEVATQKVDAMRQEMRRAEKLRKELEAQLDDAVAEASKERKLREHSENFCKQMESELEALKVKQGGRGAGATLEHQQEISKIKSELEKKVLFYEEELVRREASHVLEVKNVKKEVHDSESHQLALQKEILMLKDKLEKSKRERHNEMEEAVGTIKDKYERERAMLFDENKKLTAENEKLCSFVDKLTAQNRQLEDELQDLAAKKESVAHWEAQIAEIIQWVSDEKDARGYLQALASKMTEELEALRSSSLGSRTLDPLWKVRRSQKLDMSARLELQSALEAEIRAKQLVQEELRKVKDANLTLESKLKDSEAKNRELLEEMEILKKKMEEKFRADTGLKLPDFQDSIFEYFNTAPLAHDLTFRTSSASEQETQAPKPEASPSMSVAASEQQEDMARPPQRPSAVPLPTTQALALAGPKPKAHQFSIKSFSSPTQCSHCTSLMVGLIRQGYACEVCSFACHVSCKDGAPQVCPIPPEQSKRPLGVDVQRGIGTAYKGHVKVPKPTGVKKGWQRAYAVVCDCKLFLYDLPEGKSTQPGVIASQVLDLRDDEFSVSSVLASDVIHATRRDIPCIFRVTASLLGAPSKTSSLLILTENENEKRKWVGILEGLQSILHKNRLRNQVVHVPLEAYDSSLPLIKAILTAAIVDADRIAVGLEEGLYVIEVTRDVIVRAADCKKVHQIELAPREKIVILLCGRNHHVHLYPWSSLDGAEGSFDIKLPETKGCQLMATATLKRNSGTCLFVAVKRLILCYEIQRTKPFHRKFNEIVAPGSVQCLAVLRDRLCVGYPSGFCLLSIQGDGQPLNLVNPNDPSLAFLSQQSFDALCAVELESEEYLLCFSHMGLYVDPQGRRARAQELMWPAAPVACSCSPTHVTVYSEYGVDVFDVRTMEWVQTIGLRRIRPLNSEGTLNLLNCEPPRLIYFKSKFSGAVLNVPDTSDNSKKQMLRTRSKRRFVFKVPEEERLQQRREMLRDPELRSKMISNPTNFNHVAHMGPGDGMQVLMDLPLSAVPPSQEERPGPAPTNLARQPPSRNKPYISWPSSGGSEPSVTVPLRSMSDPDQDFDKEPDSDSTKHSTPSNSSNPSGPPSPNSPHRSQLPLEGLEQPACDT
Sequence of Mitogen-activated protein kinase 14 (Homo sapiens) (Q16539 whole entry): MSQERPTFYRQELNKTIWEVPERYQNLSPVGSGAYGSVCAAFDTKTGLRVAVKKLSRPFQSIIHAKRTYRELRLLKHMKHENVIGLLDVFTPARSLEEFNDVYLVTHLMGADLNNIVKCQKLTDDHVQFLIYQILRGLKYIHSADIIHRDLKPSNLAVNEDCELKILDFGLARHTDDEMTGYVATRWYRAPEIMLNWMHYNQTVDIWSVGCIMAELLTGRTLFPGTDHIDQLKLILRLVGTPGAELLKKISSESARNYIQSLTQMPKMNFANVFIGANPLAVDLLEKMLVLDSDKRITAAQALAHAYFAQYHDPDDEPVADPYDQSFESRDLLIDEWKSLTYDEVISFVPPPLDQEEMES
Sequence of Dual specificity tyrosine-phosphorylation-regulated kinase 1B (Homo sapiens) (Q9Y463 whole entry, looked up): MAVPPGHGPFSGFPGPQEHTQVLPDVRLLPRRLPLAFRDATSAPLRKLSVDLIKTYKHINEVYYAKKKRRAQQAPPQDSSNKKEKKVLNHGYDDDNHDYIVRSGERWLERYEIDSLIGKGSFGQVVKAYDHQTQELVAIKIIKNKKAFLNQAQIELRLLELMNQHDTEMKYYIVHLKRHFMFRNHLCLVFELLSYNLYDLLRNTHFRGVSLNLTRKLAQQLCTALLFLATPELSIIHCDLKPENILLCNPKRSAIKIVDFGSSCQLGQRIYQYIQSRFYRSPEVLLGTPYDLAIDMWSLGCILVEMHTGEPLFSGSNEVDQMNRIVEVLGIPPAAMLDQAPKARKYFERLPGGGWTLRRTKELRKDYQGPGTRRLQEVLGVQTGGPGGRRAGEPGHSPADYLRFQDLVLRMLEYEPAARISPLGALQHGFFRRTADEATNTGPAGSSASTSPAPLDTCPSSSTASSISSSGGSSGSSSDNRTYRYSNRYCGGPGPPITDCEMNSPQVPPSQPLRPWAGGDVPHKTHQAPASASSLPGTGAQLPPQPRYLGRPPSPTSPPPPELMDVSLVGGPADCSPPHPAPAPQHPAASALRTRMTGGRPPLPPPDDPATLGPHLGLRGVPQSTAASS
Sequence of Serine/threonine-protein kinase N2 (Homo sapiens) (Q16513 whole entry, looked up): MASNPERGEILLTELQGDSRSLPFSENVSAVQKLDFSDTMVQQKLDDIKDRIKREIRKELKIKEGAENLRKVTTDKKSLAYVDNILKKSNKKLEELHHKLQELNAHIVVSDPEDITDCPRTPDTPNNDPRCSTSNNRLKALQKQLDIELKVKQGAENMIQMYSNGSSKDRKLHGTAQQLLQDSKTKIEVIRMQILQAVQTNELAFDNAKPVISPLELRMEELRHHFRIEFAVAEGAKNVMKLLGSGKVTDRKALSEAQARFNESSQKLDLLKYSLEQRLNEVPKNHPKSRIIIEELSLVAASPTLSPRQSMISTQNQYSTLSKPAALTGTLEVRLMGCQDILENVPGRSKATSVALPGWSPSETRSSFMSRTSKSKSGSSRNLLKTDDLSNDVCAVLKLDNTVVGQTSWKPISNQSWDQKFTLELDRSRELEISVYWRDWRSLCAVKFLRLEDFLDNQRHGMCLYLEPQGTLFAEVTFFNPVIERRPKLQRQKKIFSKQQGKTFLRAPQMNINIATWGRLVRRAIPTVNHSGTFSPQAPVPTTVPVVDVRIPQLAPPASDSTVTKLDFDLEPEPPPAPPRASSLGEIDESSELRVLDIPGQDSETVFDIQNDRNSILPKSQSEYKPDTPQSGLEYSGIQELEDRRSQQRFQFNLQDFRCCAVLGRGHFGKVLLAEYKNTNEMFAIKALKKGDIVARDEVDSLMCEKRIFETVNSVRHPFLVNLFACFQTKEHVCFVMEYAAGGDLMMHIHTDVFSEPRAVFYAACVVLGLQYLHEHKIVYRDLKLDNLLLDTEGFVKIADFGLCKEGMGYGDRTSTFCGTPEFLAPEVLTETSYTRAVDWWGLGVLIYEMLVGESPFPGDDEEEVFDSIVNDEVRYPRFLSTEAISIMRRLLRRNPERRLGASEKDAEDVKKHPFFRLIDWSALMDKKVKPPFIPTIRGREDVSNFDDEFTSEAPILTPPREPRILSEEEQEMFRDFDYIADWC

Compound | inhibition [1] [%] | inhibition [2] [%] | inhibition [3] [%] | inhibition [4] [%] | inhibition [5] [%] | inhibition [6] [%] | inhibition [7] [%] | inhibition [8] [%] | inhibition [9] [%] | inhibition [10] [%] | inhibition [11] [%] | inhibition [12] [%] | inhibition [13] [%] | inhibition [14] [%] | inhibition [15] [%] | inhibition [16] [%]
Oc1n[nH]c2nnc(-c3c(-c4ccccc4)nn4ccccc34)cc12 | 11.6 | 2.81 | 0.5 | 1.57 | -3.14 | -2.71 | 4.33 | -1.78 | 3.01 | -3.97 | -2.59 | 1.9 | -1.15 | 0.83 | 2.89 | -2.05
Nc1n[nH]c2nnc(-c3c(-c4ccccc4)nn4ccccc34)cc12 | 1.83 | 4.57 | -0.77 | 10.8 | -1.47 | -0.61 | 6.62 | -0.86 | -0.45 | 4.69 | -4.88 | 1.14 | 5.42 | 7.04 | 2.89 | -0.31
